In one test the test system is A-375. The test can be described thus: Antiproliferative activity against human A375 cells assessed as reduction in cell viability incubated for 72 hrs by MTT assay. The format is functional, cell-based. The following applies: A-375, 72 h.
For a further test, the system named is HeLa. The test can be described thus: Antiproliferative activity against human HeLa cells assessed as reduction in cell viability incubated for 72 hrs by MTT assay. The format is functional, cell-based.
The subject of the next test is MCF7. The test can be described thus: cells. The following applies: Homo sapiens, MCF7, 72 h.
The subject of the next test is HCT-116. The test can be described thus: Antiproliferative activity against human HCT116 cells assessed as reduction in cell viability incubated for 72 hrs by MTT assay. The format is functional, cell-based. The following applies: HCT-116, 72 h. On the technique in general: Tetrazolium dyes change colour on reduction, which living cells bring about.
In test [1] the target is PI3-kinase p110-delta/p85-alpha (Homo sapiens, UniProt O00329). The test can be described thus: Inhibition of recombinant human full length N-terminal GST-tagged PI3Kdelta (1 to 1044 residues)/PIK3R1 (1 to 724 residues) expressed in baculovirus expression system using PIP2 as substrate incubated for 2 hrs by ADP-Glo assay. (In general: In ADP-Glo the light output rises with the ADP produced.)
PI3-kinase p110-delta/p85-alpha, sequence (P27986 whole entry, the tested form may be a part): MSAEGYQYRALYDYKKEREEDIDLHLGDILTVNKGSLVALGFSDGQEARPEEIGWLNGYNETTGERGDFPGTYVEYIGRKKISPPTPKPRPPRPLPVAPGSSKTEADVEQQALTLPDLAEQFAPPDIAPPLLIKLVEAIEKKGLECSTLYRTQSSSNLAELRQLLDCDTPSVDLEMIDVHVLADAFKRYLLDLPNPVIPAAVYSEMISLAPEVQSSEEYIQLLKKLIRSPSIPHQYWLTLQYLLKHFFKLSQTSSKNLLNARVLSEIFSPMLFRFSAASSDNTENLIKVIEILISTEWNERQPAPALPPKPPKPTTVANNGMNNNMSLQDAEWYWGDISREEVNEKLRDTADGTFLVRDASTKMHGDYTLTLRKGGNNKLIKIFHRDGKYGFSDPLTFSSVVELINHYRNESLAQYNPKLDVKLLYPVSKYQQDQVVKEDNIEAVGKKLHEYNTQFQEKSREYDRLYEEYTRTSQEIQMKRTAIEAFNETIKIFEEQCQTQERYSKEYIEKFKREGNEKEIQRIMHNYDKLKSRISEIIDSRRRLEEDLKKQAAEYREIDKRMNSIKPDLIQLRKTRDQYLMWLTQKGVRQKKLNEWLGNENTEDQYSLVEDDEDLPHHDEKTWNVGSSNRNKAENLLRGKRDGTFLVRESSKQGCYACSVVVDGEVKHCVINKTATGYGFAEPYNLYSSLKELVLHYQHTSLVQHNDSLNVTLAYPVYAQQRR
PI3-kinase p110-delta/p85-alpha, sequence (O00329 whole entry, the tested form may be a part): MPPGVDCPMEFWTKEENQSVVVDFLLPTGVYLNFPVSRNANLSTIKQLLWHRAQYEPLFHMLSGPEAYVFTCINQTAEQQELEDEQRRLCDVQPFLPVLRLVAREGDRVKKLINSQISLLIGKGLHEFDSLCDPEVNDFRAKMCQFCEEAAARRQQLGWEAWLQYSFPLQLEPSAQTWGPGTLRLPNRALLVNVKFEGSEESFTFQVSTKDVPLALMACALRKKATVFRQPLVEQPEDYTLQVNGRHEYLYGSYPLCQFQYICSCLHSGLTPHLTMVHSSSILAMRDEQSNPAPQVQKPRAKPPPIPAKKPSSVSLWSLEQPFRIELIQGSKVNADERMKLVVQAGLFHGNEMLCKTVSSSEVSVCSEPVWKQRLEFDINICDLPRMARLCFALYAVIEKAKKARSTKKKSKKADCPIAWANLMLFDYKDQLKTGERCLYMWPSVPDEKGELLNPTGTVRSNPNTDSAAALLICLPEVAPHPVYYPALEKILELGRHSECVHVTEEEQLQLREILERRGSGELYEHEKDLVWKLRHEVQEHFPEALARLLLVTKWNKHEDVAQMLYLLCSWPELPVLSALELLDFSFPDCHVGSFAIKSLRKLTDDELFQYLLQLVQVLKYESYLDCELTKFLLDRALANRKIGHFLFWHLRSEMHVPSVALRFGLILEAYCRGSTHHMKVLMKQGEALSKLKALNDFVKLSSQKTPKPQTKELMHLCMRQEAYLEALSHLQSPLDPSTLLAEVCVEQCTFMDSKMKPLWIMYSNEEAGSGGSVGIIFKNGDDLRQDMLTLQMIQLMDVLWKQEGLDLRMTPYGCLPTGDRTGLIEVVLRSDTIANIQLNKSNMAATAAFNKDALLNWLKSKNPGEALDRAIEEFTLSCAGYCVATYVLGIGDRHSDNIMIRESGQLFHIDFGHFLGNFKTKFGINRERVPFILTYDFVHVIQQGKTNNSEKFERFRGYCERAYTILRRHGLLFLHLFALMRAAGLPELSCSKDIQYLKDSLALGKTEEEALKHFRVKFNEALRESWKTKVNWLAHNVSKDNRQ

Test [2] addresses Phosphatidylinositol 4,5-bisphosphate 3-kinase catalytic subunit alpha isoform (Homo sapiens, UniProt P42336). The test can be described thus: Inhibition of recombinant human full length N-terminal GST-tagged PI3Kalpha (1 to 1068 residues)/PIK3R1 (1 to 724 residues) expressed in baculovirus expression system using PIP2 as substrate incubated for 1 hr by ADP-Glo assay.
Test [3] has as its target Serine/threonine-protein kinase mTOR (Homo sapiens, UniProt P42345). The test can be described thus: Inhibition of recombinant human N-terminal FLAG-tagged mTOR (1362 to end residues) using Ulight-4E-BP1 as substrate incubated for 30 mins by fluorescence assay.
The next test has as its system HepG2. The test can be described thus: cells. The note with it: Homo sapiens, HepG2, 72 h.
The subject of a further test is A549. The test can be described thus: cells. The following applies: Homo sapiens, A549, 72 h.

Phosphatidylinositol 4,5-bisphosphate 3-kinase catalytic subunit alpha isoform, sequence (P42336 whole entry, looked up, the tested form may be a part, canonical isoform): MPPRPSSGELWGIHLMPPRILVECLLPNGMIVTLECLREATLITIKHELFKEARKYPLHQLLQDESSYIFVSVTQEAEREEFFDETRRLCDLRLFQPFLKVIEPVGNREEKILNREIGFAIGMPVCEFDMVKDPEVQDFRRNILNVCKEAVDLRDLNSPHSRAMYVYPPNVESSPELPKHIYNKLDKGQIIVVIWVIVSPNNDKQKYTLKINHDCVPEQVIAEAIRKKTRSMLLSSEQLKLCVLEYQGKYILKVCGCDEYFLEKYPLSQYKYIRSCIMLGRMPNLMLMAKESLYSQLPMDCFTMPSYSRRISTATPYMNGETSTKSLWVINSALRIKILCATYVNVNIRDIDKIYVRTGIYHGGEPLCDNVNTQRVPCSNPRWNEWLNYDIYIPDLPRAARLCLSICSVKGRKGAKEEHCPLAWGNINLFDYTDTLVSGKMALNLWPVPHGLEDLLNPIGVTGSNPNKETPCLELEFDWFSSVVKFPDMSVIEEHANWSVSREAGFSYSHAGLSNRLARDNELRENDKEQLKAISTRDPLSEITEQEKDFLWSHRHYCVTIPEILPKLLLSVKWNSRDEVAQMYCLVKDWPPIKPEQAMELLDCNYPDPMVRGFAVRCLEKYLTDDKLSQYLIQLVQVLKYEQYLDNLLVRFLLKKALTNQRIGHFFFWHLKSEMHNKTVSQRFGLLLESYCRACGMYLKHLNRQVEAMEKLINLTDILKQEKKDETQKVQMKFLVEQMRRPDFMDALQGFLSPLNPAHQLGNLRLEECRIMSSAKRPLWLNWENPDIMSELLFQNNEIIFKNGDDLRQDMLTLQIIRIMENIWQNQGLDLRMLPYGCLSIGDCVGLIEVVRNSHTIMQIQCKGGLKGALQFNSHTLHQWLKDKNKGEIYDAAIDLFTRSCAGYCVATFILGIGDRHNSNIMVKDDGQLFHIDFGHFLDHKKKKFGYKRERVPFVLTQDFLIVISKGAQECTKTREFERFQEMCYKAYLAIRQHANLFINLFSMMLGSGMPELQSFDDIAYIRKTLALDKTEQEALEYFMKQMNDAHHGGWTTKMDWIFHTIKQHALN

The term IC50 denotes the concentration that inhibits the measured activity by half. For `O=C1COc2ccc(-c3cnc4ccccc4c3)cc2N1C1CCCCC1`, the IC50 in the test on A-375 is > 40 µM; in the test with HeLa, 19.7 µM; with MCF7 it was > 40 µM; in the test with HCT-116, > 40 µM; in test [1], > 1 µM; in test [2], > 1 µM. The IC50 in test [3] is > 1 µM; in the test with HepG2, > 40 µM; in the test on A549, > 40 µM.

On to `COc1ncc(-c2ccc3c(c2)N(c2ccc(F)cc2)C(=O)CO3)cc1NS(=O)(=O)c1ccc(F)cc1`, for which the IC50 was > 40 µM in the test with A-375; 10.5 µM with HeLa; > 40 µM in the test with MCF7; > 40 µM in the test on HCT-116; 0.019 µM in test [1]; 0.021 µM in [2]. In addition, the results for the IC50 (in test [3]; with HepG2; in the test with A549) were 0.0349 µM, 36.4 µM and 6.5 µM, respectively.

With `O=C1COc2ccc(-c3cccc(NS(=O)(=O)c4ccc(F)cc4)c3)cc2N1`, the IC50 in the test on A-375 was 20.1 µM; in the test on HeLa it was > 40 µM; in the test with MCF7, 18.3 µM; with HCT-116 it was > 40 µM; in test [1], > 1 µM; in [2], > 1 µM. For the same compound, the 50% inhibitory concentration (IC50) in test [3] is > 1 µM; in the test on HepG2, > 40 µM; in the test with A549 it was 32.1 µM.

Take `O=C1COc2ccc(-c3ccc(O)cc3)cc2N1c1ccc(F)cc1`: the IC50 in the test on A-375 was > 40 µM; in the test with HeLa, > 40 µM; in the test on MCF7, 30.2 µM; in the test on HCT-116, > 40 µM; in test [1], > 1 µM; in [2], > 1 µM. For the same compound, the IC50 in test [3] was > 1 µM; in the test with HepG2 it was > 40 µM; with A549 it was > 40 µM.

`O=C1COc2ccc(-c3ccc(O)cc3)cc2N1C1CC1`: the IC50 with A-375 is > 40 µM; in the test on HeLa it was > 40 µM; in the test with MCF7, 33 µM; in the test on HCT-116, > 40 µM; in [1] it was > 1 µM; in [2], > 1 µM. Besides, the IC50 in test [3] is > 1 µM; in the test with HepG2, 32.7 µM; in the test with A549, > 40 µM.

Take `COc1ncc(-c2ccc3c(c2)N(c2ccc(C)cc2)C(=O)CO3)cc1NS(=O)(=O)c1ccc(F)cc1`: the concentration for half-maximal inhibition (IC50) in the test on A-375 was determined as 12.9 µM; in the test on HeLa, 4.65 µM; with MCF7, 15.4 µM; with HCT-116, 22.7 µM; in test [1], 0.017 µM; in test [2] it was 0.012 µM. Besides, the half-inhibitory concentration (IC50) in test [3] amounted to 0.0138 µM; in the test with HepG2, 28.3 µM; in the test on A549, 5.87 µM.

In the case of `O=C1COc2ccc(-c3cnc(Cl)c(NS(=O)(=O)c4ccc(F)cc4)c3)cc2N1C1CC1`, the IC50 in the test on A-375 was determined as 21.8 µM; in the test with HeLa it was 7.18 µM; in the test on MCF7, 16.7 µM; in the test on HCT-116 it was 12.4 µM; in test [1], 0.062 µM; in test [2] it was 0.086 µM. The IC50 in test [3] stood at 0.267 µM; in the test with HepG2, 8.51 µM; in the test with A549 it was 4.33 µM.

For the compound `O=C1COc2ccc(-c3ccc(O)cc3)cc2N1`, the IC50 in the test with A-375 is > 40 µM; in the test with HeLa, > 40 µM; in the test on MCF7 it was > 40 µM; in the test on HCT-116, > 40 µM; in test [1] it was > 1 µM; in test [2], > 1 µM. The IC50 in [3] is > 1 µM; with HepG2, 38.1 µM; in the test with A549, > 40 µM.

Turning to `O=C1COc2ccc(-c3cnc(Cl)c(NS(=O)(=O)c4ccc(F)cc4)c3)cc2N1c1ccc(F)cc1`, the half-inhibitory concentration (IC50) in the test on A-375 was > 40 µM; in the test on HeLa it was > 40 µM; in the test with MCF7 it was 32.6 µM; with HCT-116, 34.2 µM; in test [1], 0.005 µM; in test [2], 0.0051 µM. In addition, the IC50 in test [3] was 0.0179 µM; in the test with HepG2, > 40 µM; with A549, 22.3 µM.

Regarding `O=C1COc2ccc(-c3cccc(NS(=O)(=O)c4ccc(F)cc4)c3)cc2N1C1CCCCC1`, the IC50 is 23.8 µM in the test with A-375; 10.8 µM with HeLa; 21.4 µM in the test on MCF7; 18.3 µM in the test with HCT-116; > 1 µM in test [1]; > 1 µM in [2]. Further, the 50% inhibitory concentration (IC50) in test [3] is > 1 µM; in the test on HepG2, 35.9 µM; in the test on A549 it was 14.5 µM.

For the compound `CC(C)N1C(=O)COc2ccc(-c3cnc4ccccc4c3)cc21`, the half-maximal inhibitory concentration (IC50) in the test with A-375 was 39 µM; in the test with HeLa it was 23.1 µM; in the test on MCF7 it was 22.9 µM; in the test with HCT-116, 23.2 µM; in test [1] it was > 1 µM; in [2], > 1 µM. Also, the half-inhibitory concentration (IC50) is > 1 µM in [3], > 40 µM in the test with HepG2 and 24.6 µM in the test on A549.

Take `Cc1ccc(N2C(=O)COc3ccc(-c4cnc(Cl)c(NS(=O)(=O)c5ccc(F)cc5)c4)cc32)cc1`: the IC50 in the test on A-375 came to 38.9 µM; in the test with HeLa, 32.3 µM; with MCF7, 32.6 µM; in the test with HCT-116, 34.3 µM; in [1], 0.0037 µM; in test [2], 0.0041 µM. Also, the IC50 in test [3] is 0.0194 µM; with HepG2, 39.6 µM; in the test on A549, 30.9 µM.

For `Cc1ccc(N2C(=O)COc3ccc(-c4ccc(O)cc4)cc32)cc1`, the IC50 was > 40 µM with A-375; > 40 µM in the test on HeLa; 26.2 µM in the test on MCF7; > 40 µM with HCT-116; > 1 µM in test [1]; > 1 µM in test [2]. In addition, the IC50 in test [3] is > 1 µM; in the test on HepG2 it was > 40 µM; with A549, > 40 µM.

As for `COc1ccc(N2C(=O)COc3ccc(-c4cnc(Cl)c(NS(=O)(=O)c5ccc(F)cc5)c4)cc32)cc1`, the IC50 was determined as 32.7 µM with A-375; 8.32 µM with HeLa; 36 µM in the test with MCF7; 30.1 µM in the test with HCT-116; 0.0038 µM in [1]; 0.00043 µM in test [2]. For the same compound, the IC50 in test [3] is 0.0198 µM; in the test with HepG2, > 40 µM; with A549, 30.4 µM.

Consider `O=C1COc2ccc(-c3cnc4ccccc4c3)cc2N1c1ccccc1`, for which the half-inhibitory concentration (IC50) with A-375 is > 40 µM; with HeLa, > 40 µM; with MCF7, > 40 µM; with HCT-116, > 40 µM; in test [1], > 1 µM; in [2] it was > 1 µM. Moreover, the IC50 in test [3] is > 1 µM; in the test with HepG2, > 40 µM; with A549, > 40 µM.

With `COc1cccc(N2C(=O)COc3ccc(-c4cccc(NS(=O)(=O)c5ccc(F)cc5)c4)cc32)c1`, the IC50 in the test with A-375 is > 40 µM; with HeLa, > 40 µM; with MCF7, > 40 µM; in the test on HCT-116, > 40 µM; in test [1], > 1 µM; in [2] it was > 1 µM. Moreover, the IC50 in [3] is > 1 µM; in the test with HepG2, > 40 µM; in the test with A549, > 40 µM.

For `COc1cccc(N2C(=O)COc3ccc(-c4cnc(Cl)c(NS(=O)(=O)c5ccc(F)cc5)c4)cc32)c1`, the IC50 in the test with A-375 is > 40 µM; in the test with HeLa, > 40 µM; with MCF7, > 40 µM; with HCT-116, > 40 µM; in [1], > 1 µM; in test [2], > 1 µM. Moreover, the IC50 in test [3] is > 1 µM; in the test with HepG2 it was > 40 µM; in the test with A549 it was 32.6 µM.

Regarding `Cc1ccc(N2C(=O)COc3ccc(-c4cnc5ccccc5c4)cc32)cc1`, the IC50 in the test with A-375 is > 40 µM; with HeLa it was > 40 µM; with MCF7 it was > 40 µM; in the test with HCT-116 it was > 40 µM; in test [1] it was > 1 µM; in test [2] it was > 1 µM. In addition, the IC50 was > 1 µM in test [3], > 40 µM in the test on HepG2 and > 40 µM in the test with A549.

Take `CC(C)N1C(=O)COc2ccc(-c3cccc(NS(=O)(=O)c4ccc(F)cc4)c3)cc21`: the IC50 is > 40 µM in the test with A-375; 22.7 µM in the test on HeLa; 26 µM in the test on MCF7; 22.6 µM with HCT-116; > 1 µM in test [1]; > 1 µM in test [2]. Further, the IC50 in test [3] is > 1 µM; in the test with HepG2, > 40 µM; in the test on A549, 29.4 µM.

For `Cc1ccc(N2C(=O)COc3ccc(-c4cccc(NS(=O)(=O)c5ccc(F)cc5)c4)cc32)cc1`, the IC50 in the test with A-375 was 36.2 µM; in the test on HeLa, > 40 µM; in the test with MCF7 it was 32.1 µM; in the test on HCT-116, 35.6 µM; in test [1] it was > 1 µM; in [2], > 1 µM. The 50% inhibitory concentration (IC50) is > 1 µM in test [3], > 40 µM with HepG2 and > 40 µM with A549.

Turning to `COc1ccc(N2C(=O)COc3ccc(-c4cccc(NS(=O)(=O)c5ccc(F)cc5)c4)cc32)cc1`, the IC50 in the test on A-375 is 38.5 µM; in the test with HeLa, 13.2 µM; in the test on MCF7 it was 32.4 µM; in the test with HCT-116, 28.3 µM; in test [1], > 1 µM; in test [2] it was > 1 µM. For the same compound, the IC50 was > 1 µM in test [3], 29.8 µM in the test on HepG2 and 38.2 µM in the test on A549.

In the case of `COc1ncc(-c2ccc3c(c2)N(C2CCCCC2)C(=O)CO3)cc1NS(=O)(=O)c1ccc(F)cc1`, the IC50 in the test on A-375 was > 40 µM; in the test on HeLa, 6.1 µM; in the test with MCF7 it was 30.1 µM; in the test on HCT-116, > 40 µM; in test [1], 0.406 µM; in test [2], > 1 µM. For the same compound, the values for the IC50 (in [3]; in the test on HepG2; in the test with A549) were 0.873 µM, > 40 µM and 24.6 µM, respectively.
